Assay results taken from patent publication US12648565B2, “Post-emergence herbicide” (Belvedere Foliar LLC, priority 2017, dated 2026).

Legend:
[1] = system: Pasture Blend 1, Pasture blend 2, Cineraria meritima (Dusty miller) (plants 21, 22, 10); test: Trial 14: greenhouse foliar spray trial, visual toxicity scoring; type: in vivo, pasture seed blend
Source text: (§1) The majority of greenhouse trials conducted to date have been of one basic design: • 1. Samples of different species of flowering plant and grass are exposed to different formulations of the herbicide in accordance with some embodiments, prepared in a range of concentrations, in combination with potentially suitable adjuvants, and applied as an aquatic spray. Experimental plants are purchased either from a local nursery, grown from ornamental and weed seed packs, or grown from seeds of a custom blend prepared specifically for this project and listed in Table 4B. The experimental variable in a typical test is the molar mass concentration of the nutrient salt being examined. Other factors including pH, nitrogen source, and the amount and composition of surfactant or penetrant are constants within a trial except when one of these factors is itself the variable of interest in the experiment. Experiments are controlled unless irrelevant for a particular test. • 2. Standard techniques to reduce experimental error are employed including use of controls; standard spray application pressures; standardized growing conditions, growing medium, containers, and source irrigation water; and preparation and shipping of samples for laboratory analysis according to required standard laboratory protocols. • 3. Plants are sprayed with the experimental formulation, always in late afternoon (greenhouse tests), or in early morning (field tests), are observed over as many as several weeks, and their visible state of decline scored by the same examiner on a 9 points system relying on visual effects of toxicity. (Table 5.)
(§2) Scores of half-value are also used: 0, 0.5, 1.0, 1.5, 2.0, 2.5, etc. • 4. The estimated successful herbicidal effectiveness of a formulation was determined from a combination of averaged and cumulative scores of 4.0 to 5.0 observed approximately 14 days or longer after application: “All leaves and flowers if present desiccated, browned, wilted, and stems or blades lodged; no green tissue visible; no regrowth from roots visible.”
In Trial 14, the herbicides comprised K-acetate; molarity 2.0, 1.5, 1.0; pH approx. 5.3 by glacial acetic acid, and a proprietary adjuvant mix. Ref. Lab-1, p. 113. Test plants (ref. Tables 4A and 4B): P1, P2, P10.

[2] = system: Pasture Blend 2, Allium ampeloprasum (Leek), Brassica oleracea (Kale), Lantana camara, Pisum sativum var. saccharatum (Snow pea) (P2, 1, 5, 16, 23); test: Trial 31A: greenhouse foliar spray trial, adjuvant mix A, visual toxicity scoring; type: in vivo; details: 1.0M; by Day 20
Source text: (§3) The plants were numbered 22, 1, 5, 16, and 23, corresponding to Pasture blend 2, Brassica oleracea (var. Kale “Dinosaur”), Lantana camara (White Lantana), and Pisum sativum var. saccharatum (Snow pea) (Refer to Tables 4A and 4B for plant species identification). The only difference between Trials 31A and 31B was the composition of the proprietary adjuvant mix employed for each trial. The adjuvants for the “A” series were urea and […] silicone surfactant (Loveland Products). The adjuvants for the “B” series were urea and LI700 penetrant (Loveland Products). Solutions 1 A & B (S-1A, S-1B) correspond to a 2.0 molar solution of potassium acetate, pH 5.01 achieved with citric acid. S-2 is a similar solution of 1.5 molarity, pH 5.00. S-3 is a similar solution of 1.0 molarity, pH 4.97. (Refer to Tables 6A and 6B for trial solutions, details and results).
(§4) The majority of greenhouse trials conducted to date have been of one basic design: • 1. […] Plants are sprayed with the experimental formulation, always in late afternoon (greenhouse tests), or in early morning (field tests), are observed over as many as several weeks, and their visible state of decline scored by the same examiner on a 9 points system relying on visual effects of toxicity. […]

[3] = system: Pasture Blend 2, Gazania rigens, Fragaria x ananassa (Strawberry), Nemophila menziesii discoidalis (plants 22, 15, 13, 19); test: Trial 22: greenhouse foliar spray trial, visual toxicity scoring; type: in vivo
Source text: as §1, §2
In Trial 22, the herbicides comprised K-acetate; molarity range 1.0-2.0; pH approx. 5.0 with succinic acid; proprietary adjuvant mix.

[4] = system: all weeds: Common purslane, Barnyard grass, Feather fingergrass; details: Day 4
Source text: as §1, with “Standard techniques to reduce experimental error are employed including use of controls; standard spray application pressures; standardized growing conditions, growing medium, containers, and source irrigation water; and preparation and shipping of samples for laboratory analysis according to required standard laboratory protocols. • 3.” left out, “(Table 5.)” left out

[5] = system: Viola x wittockiana (Viola), Antirrhinum majus (Snapdragon), Cineraria meritima (Dusty miller), Cymbalaria aequitriloba (Cymbalaria); test: Trial 56: greenhouse foliar spray trial, visual toxicity scoring; type: in vivo; details: for phytotoxic control (in words): 1.5 molarity
Source text: as §1, §2

[6] = system: Brassica oleracea (Kale), Dichondra repens, Fragaria x ananassa (Strawberry), Pasture Blend 2, Rosemarina officinalis (Rosemary) (5, 11b, 13, 22, 23b); test: Trial 47: greenhouse foliar spray trial, visual toxicity scoring; type: in vivo
Source text: as §1, §2
In Trial 47, the herbicides comprised K-acetate; molarity range from 1.0-2.5; pH 5.03-5.05 with glacial acetic acid; proprietary adjuvant mix. Ref. Lab-2, p. 42. Test plants (ref Tables 4A and 4B):5, 11b, 13, 22, 23b
S-1 corresponds to the highest concentration of active nutrient tested, S-4 corresponds to the lowest concentration of nutrient tested, and […] represent intermediate levels. The data are graphically presented below in FIG. 8.

mature field weeds = test: Trial 50: field test, visual toxicity scoring; type: in vivo
Source text: as §1, §2
In Trial 50, the herbicides comprised K-acetate; molarity range from 1.5, 2.0 and 2.5; pH 5.0 with citric acid; proprietary adjuvant mix. Ref. Lab-2, p. […] Test plants were mature field weeds.
S-1 corresponds to the highest concentration of active nutrient tested, S-3 corresponds to the lowest concentration of nutrient tested, and S-2 represent an intermediate level. The data are graphically presented below in FIG. 11.

[7] = system: Pasture Blend 2, Gazania rigens, Fragraria x ananassa (Strawberry), Nemophila menziesii discoidalis (plants 22, 15, 13, 19); test: Trial 25: greenhouse foliar spray trial at four acidities, visual toxicity scoring; type: in vivo; details: molarity 1.5, test conclusion on Day 5
Source text: as §1, with “Standard techniques to reduce experimental error are employed including use of controls; standard spray application pressures; standardized growing conditions, growing medium, containers, and source irrigation water; and preparation and shipping of samples for laboratory analysis according to required standard laboratory protocols. • 3.” left out, “(Table 5.)” left out

[8] = system: Pasture Blend 2, Allium ampeloprasum (Leek), Brassica oleracea (Kale), Lantana camara, Pisum sativum var. saccharatum (Snow pea) (P2, 1, 5, 16, 23); test: Trial 31B: greenhouse foliar spray trial, adjuvant mix B, visual toxicity scoring; type: in vivo; details: 2.0 M; day 4
Source text: as §3, §4

`CC(=O)[O-].[K+]` [K-acetate, Potassium acetate] was tested, and the average toxicity score ([1]; 1.0M, Day 7 (so in the source)) was 4.3, the average toxicity score ([1]; 1.0M, Day 11) was 4.0 and the average toxicity score ([1]; 2.0M, Day 1) was 4.0. The average toxicity score ([1]; 2.0M, Day 11) was 4.7, the average toxicity score ([1]; […], Day 1) was 4 and the average toxicity score ([1]; […], Day 11) was 4.8. For the same molecule, the average toxicity score [2] was 4.4, the “phytotoxic results (in words)” value ([3]; 1.0M, Days 3-7) was “strong phytotoxic results” and the average toxicity score ([3]; 2.0M, Day 5) was 4.3. The average toxicity score ([3]; 2.0M, Day 7) was 4.4, the average toxicity score ([3]; […], Day 5) was 4.1 and the average toxicity score ([3]; […], Day 7) was 4.1. For the same molecule, the “phytotoxic control (in words)” value [4] was “strong to excellent phytotoxic control”, the “appearance of treated plants” value ([5]; 1.5 molar, last observed on Day 16) was “appeared dead with no regrowth” and the “phytotoxic control (in words)” value ([5]; Day 3) was “strong phytotoxic control”. The “phytotoxic control (in words)” value ([5]; Day 4 through Day 15) was “excellent phytotoxic control”, the average toxicity score ([6]; 1.0M, second value listed (days not given)) was 4.4 and the average toxicity score ([6]; 1.0M, third value listed (days not given)) was 4.8. The average toxicity score ([6]; 2.5M, Day 5) was 4.5, the average toxicity score ([6]; 2.5M, Day 9) was 4.8 and the average toxicity score ([6]; 2.5M, Day 14) was 4.9. For the same molecule, the average toxicity score ([6]; […] (so in the source), Day 5) was 4.0, the average toxicity score ([6]; […] (so in the source), Day 9) was 4.8 and the average toxicity score ([6]; […] (so in the source), Day 14) was 5.0. The average toxicity score (mature field weeds; 2.0M, Day 3) was 3.6, the average toxicity score (mature field weeds; 2.0M, Day 10) was 3.6 and the average toxicity score (mature field weeds; 2.5M, Day 3) was 2.8. The average toxicity score (mature field weeds; 2.5M, Day 10) was 2.8, the “phytotoxicity (in words)” value (mature field weeds; 2.5 molarity) was “less phytotoxicity than lower molarities” and the “phytotoxic effect (in words)” value ([7]; pH 4.3) was “severe-to-fatal”. The “phytotoxic effect (in words)” value ([7]; pH 5.0) was “severe-to-fatal” and the “toxicity level (in words)” value [8] was “severe-to-fatal”.
